Drawing on article PMC5564600 (Oncotarget, 2017), this text covers remaining activity for four compounds.

Common to all, as to assay: biochemical
Holding throughout (type): binding

In test [1] the target is T1, panel of 442 kinases (Homo sapiens, UniProt P51617).
T1 construct: purchased Ambit Biosciences (scanMAXX KINOMEscan)
To be noted: kinase IRAK1; for remaining activity at 1 µM: read-out: % of control at 1 µM.

Test [2] addresses T2, panel of 442 kinases (Homo sapiens, UniProt P04626).
T2 construct: purchased Ambit Biosciences (scanMAXX KINOMEscan)
To be noted: ERBB2; for remaining activity at 1 µM: read-out: % of control at 1 µM.

Test [3] addresses T3, panel of 442 kinases (Homo sapiens, UniProt P00519, E255K).
T3 construct: purchased Ambit Biosciences (scanMAXX KINOMEscan)
The following applies: ABL1(E255K)-phosphorylated; for remaining activity at 1 µM: read-out: % of control at 1 µM.

The target in test [4] is T4, panel of 442 kinases (Homo sapiens, UniProt Q8NG66).
T4 construct: purchased Ambit Biosciences (scanMAXX KINOMEscan)
T4 sequence (Q8NG66 1-645): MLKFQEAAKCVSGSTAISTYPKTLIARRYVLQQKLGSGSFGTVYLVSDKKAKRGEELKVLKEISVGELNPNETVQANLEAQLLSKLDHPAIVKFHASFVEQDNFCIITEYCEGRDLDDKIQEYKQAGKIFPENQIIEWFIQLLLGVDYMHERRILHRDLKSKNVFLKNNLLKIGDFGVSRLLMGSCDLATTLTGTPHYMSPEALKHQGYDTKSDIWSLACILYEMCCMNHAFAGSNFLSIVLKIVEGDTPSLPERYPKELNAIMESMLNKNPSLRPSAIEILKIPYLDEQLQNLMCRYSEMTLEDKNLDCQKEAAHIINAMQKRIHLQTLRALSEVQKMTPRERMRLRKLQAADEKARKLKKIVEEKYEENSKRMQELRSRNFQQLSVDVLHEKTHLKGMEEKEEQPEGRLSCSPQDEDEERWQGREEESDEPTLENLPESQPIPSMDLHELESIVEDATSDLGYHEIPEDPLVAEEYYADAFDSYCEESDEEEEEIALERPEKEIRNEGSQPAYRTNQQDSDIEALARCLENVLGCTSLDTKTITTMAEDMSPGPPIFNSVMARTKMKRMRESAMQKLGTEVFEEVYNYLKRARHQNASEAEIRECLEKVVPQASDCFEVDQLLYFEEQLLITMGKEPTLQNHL
The following applies: kinase NEK11; for remaining activity at 1 µM: read-out: % of control at 1 µM.

Test [5] addresses T5, panel of 442 kinases (Homo sapiens, UniProt Q9UK32).
T5 construct: purchased Ambit Biosciences (scanMAXX KINOMEscan)

Test [6] has as its target T6, panel of 442 kinases (Homo sapiens, UniProt P36888, K663Q).
T6 construct: purchased Ambit Biosciences (scanMAXX KINOMEscan)
T6 sequence (P36888 27-993 K663Q): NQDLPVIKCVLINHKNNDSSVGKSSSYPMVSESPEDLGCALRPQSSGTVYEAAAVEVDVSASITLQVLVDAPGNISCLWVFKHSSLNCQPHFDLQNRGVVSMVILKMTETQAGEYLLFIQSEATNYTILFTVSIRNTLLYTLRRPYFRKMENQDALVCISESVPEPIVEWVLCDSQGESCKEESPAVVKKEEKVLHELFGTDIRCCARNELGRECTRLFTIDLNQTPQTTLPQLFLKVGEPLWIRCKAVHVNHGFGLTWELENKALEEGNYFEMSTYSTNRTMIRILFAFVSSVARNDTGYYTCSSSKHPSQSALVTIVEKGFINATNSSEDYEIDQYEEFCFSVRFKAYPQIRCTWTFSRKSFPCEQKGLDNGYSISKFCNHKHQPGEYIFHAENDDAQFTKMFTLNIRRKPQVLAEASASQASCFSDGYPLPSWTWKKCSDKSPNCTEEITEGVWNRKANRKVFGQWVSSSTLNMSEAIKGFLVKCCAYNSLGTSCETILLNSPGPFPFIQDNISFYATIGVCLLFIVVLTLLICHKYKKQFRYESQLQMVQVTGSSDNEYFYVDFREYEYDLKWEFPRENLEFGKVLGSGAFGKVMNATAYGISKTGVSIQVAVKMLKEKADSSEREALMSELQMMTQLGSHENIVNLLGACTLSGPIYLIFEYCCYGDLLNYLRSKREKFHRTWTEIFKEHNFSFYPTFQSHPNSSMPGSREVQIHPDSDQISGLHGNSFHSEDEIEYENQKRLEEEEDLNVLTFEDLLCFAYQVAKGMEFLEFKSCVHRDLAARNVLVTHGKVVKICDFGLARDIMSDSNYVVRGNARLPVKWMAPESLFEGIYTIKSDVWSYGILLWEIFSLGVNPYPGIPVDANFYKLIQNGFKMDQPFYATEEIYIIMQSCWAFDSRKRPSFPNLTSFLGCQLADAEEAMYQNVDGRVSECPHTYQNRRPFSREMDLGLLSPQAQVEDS
The following applies: FLT3(K663Q); for remaining activity at 1 µM: read-out: % of control at 1 µM.

In test [7] the target is T7, panel of 442 kinases (Homo sapiens, UniProt P43403).
T7 construct: purchased Ambit Biosciences (scanMAXX KINOMEscan)
T7 sequence (P43403 1-619): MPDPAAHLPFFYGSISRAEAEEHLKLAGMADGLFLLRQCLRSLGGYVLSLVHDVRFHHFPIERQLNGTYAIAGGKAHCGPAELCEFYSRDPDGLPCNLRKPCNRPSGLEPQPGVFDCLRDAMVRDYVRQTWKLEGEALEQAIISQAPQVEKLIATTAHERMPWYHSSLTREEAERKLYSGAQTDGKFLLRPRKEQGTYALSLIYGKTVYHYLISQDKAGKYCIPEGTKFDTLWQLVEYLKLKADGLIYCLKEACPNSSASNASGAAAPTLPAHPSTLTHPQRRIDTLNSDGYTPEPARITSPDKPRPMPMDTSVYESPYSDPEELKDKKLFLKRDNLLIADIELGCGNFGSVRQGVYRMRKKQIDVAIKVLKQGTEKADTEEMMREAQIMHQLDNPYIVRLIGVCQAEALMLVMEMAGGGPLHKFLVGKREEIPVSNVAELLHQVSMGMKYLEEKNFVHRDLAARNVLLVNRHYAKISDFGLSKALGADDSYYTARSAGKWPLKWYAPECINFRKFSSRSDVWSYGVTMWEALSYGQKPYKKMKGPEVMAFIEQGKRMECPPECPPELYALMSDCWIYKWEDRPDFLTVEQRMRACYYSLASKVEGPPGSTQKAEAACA
The following applies: kinase ZAP70; for remaining activity at 1 µM: read-out: ZAP70 (% of control at 1 µM).

The mark [8] stands for this setting: 10 µM, read-out: % of control at 10 µM.
Setting [9] is: kinase RSK4(Kin.Dom.1-N-terminal), read-out: RSK4(Kin.Dom.1-N-terminal) (% of control at 1 µM).
[10] abbreviates: kinase RSK4(Kin.Dom.2-C-terminal), read-out: RSK4(Kin.Dom.2-C-terminal) (% of control at 1 µM).

Read-outs that look alike come from different tables or passages of the source.

T3 sequence (P00519 whole entry E255K): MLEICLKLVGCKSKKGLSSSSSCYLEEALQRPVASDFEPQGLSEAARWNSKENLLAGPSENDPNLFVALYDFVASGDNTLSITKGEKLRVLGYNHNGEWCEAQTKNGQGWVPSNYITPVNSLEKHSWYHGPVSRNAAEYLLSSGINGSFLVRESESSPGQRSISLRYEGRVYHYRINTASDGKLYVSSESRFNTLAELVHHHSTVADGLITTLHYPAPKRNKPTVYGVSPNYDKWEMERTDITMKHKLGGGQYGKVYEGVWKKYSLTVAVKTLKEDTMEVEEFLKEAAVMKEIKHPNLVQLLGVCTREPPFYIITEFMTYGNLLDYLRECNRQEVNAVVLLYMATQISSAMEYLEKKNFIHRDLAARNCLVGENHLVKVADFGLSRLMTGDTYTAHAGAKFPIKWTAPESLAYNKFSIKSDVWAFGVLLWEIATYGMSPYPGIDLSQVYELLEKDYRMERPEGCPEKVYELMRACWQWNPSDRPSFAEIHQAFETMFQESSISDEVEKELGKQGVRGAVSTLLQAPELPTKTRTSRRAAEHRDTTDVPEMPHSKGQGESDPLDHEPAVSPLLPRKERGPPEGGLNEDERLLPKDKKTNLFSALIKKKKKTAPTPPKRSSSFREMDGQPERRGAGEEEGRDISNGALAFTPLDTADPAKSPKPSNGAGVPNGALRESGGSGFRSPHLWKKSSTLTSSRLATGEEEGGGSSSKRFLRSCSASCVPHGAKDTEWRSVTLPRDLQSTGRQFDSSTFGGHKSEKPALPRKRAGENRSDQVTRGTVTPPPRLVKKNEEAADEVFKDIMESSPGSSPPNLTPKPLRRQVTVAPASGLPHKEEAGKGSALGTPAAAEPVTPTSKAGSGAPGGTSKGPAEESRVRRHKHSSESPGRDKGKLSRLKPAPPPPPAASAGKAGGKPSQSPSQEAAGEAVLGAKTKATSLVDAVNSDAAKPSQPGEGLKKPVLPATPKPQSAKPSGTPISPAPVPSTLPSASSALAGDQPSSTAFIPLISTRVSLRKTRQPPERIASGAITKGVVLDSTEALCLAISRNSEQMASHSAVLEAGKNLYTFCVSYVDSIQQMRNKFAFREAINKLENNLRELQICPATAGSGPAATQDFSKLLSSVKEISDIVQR
T2 sequence (P04626 23-1255): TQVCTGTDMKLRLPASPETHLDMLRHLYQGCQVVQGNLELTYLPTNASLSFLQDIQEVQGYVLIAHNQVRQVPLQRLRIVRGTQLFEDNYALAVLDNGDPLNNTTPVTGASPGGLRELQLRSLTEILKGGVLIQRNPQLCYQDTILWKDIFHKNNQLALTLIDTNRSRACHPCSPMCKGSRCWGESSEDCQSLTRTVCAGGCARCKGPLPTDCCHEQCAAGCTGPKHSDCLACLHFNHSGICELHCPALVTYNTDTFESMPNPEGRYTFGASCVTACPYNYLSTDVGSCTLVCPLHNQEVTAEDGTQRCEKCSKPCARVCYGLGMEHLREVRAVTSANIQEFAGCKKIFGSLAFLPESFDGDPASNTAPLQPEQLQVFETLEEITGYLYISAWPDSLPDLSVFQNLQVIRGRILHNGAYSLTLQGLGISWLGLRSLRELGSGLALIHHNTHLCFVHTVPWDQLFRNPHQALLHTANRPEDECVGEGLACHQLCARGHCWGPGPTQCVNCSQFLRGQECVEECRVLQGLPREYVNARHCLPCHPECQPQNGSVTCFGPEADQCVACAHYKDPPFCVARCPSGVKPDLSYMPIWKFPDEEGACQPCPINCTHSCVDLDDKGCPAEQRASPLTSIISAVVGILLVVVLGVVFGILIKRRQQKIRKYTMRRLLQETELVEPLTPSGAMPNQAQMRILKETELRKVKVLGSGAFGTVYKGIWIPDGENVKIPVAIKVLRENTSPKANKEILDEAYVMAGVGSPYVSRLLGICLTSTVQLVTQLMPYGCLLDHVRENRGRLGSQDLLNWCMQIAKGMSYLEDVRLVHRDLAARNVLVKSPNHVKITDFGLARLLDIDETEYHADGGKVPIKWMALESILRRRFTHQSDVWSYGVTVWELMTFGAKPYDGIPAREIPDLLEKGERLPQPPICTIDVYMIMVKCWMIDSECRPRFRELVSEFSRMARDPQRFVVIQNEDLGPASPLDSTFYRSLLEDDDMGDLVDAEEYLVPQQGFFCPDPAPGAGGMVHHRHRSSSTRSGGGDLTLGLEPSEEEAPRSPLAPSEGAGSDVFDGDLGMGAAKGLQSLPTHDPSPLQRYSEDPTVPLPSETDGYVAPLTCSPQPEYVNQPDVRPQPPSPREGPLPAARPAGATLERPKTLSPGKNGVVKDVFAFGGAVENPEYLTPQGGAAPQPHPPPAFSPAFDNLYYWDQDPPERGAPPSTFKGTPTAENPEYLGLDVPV
T1 sequence (P51617 whole entry): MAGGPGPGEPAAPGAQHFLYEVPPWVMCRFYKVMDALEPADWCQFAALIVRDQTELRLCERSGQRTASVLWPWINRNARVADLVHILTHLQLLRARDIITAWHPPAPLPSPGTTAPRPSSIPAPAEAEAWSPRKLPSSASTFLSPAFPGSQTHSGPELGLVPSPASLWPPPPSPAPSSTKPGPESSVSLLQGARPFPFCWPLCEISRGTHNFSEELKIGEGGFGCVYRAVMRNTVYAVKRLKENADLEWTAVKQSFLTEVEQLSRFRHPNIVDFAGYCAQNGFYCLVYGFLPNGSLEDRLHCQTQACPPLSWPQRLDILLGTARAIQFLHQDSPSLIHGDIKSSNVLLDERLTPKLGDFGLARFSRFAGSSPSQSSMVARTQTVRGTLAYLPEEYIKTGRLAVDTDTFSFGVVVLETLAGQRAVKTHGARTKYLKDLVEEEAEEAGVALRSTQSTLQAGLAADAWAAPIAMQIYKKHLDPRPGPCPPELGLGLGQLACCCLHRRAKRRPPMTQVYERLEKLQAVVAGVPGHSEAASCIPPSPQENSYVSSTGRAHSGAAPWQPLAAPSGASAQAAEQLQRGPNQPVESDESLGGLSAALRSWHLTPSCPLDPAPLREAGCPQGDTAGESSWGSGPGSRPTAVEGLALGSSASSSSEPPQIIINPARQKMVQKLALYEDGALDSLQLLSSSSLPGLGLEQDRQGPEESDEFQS
T5 sequence (Q9UK32 whole entry): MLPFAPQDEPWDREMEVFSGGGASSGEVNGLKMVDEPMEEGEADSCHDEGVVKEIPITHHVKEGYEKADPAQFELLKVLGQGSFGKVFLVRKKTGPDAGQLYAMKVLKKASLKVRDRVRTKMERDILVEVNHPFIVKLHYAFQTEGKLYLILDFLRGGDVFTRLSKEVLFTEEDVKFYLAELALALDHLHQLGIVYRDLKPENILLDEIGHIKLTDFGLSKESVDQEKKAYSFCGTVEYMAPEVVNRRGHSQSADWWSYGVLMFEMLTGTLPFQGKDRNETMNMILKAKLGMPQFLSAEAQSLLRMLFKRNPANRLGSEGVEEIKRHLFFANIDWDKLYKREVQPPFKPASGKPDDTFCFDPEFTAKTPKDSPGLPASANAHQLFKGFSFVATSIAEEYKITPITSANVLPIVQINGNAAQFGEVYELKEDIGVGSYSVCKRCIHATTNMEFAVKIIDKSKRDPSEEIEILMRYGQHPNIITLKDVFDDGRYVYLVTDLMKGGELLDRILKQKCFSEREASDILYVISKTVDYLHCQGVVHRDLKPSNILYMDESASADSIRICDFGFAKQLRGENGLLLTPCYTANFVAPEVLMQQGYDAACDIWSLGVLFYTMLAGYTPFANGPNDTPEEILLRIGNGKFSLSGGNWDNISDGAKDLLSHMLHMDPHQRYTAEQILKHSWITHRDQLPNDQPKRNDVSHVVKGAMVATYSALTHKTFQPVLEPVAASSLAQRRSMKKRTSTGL

On to `Nc1cc(C(F)(F)F)c(-c2cc(N3CCOCC3)nc(N3CCOCC3)n2)cn1` [Buparlisib], for which the remaining activity at 1 µM on panel of 442 kinases [1] was 82%; at panel of 442 kinases [2] it was 85%; at panel of 442 kinases [3], 74%; on panel of 442 kinases [4] it was 74%; on panel of 442 kinases [5] (setting [9]) it was 99%; on panel of 442 kinases [5] (setting [10]), 100%. The remaining activity at 1 µM at panel of 442 kinases [6] came to 95%; at panel of 442 kinases [7], 100%. Further, the remaining activity at 10 µM was found to be 71% at panel of 442 kinases [1] (setting [8]); 100% on panel of 442 kinases [2] (setting [8]); 96% on panel of 442 kinases [3] (setting [8]); 96% at panel of 442 kinases [4] (setting [8]); 100% at panel of 442 kinases [5] (kinase RSK4(Kin.Dom.1-N-terminal), read-out: RSK4(Kin.Dom.1-N-terminal) (% of control at 10 µM)); 100% on panel of 442 kinases [5] (kinase RSK4(Kin.Dom.2-C-terminal), read-out: RSK4(Kin.Dom.2-C-terminal) (% of control at 10 µM)). The remaining activity at 10 µM on panel of 442 kinases [6] (setting [8]) was found to be 100%; at panel of 442 kinases [7] (10 µM, read-out: ZAP70 (% of control at 10 µM)) it was 100%.
In the case of `Cn1c(=O)n(-c2ccc(C(C)(C)C#N)cc2)c2c3cc(-c4cnc5ccccc5c4)ccc3ncc21` [Dactolisib, 2-methyl-2-[4-(3-methyl-2-oxo-8-quinolin-3-yl-2,3-dihydroimidazo[4,5-c]quinolin-1-yl)-phenyl] propionitrile], the remaining activity at 1 µM on panel of 442 kinases [1] was found to be 54%; at panel of 442 kinases [2] it was 100%; at panel of 442 kinases [3] it was 79%; on panel of 442 kinases [4], 81%; at panel of 442 kinases [5] (setting [9]), 71%; at panel of 442 kinases [5] (setting [10]), 82%. The remaining activity at 1 µM came out at 63% at panel of 442 kinases [6] and 99% on panel of 442 kinases [7].
With `COc1ncc(-c2ccc3nccc(-c4ccnnc4)c3c2)cc1NS(=O)(=O)c1ccc(F)cc1F` [Omipalisib], the remaining activity at 1 µM at panel of 442 kinases [1] stood at 100%; on panel of 442 kinases [2], 100%; at panel of 442 kinases [3] it was 95%; on panel of 442 kinases [4] it was 100%; on panel of 442 kinases [5] (setting [9]), 88%; on panel of 442 kinases [5] (setting [10]), 79%. Moreover, the remaining activity at 1 µM at panel of 442 kinases [6] and at panel of 442 kinases [7] was 100% throughout.
Consider `FC(F)c1nc2ccccc2n1-c1nc(N2CCOCC2)nc(N2CCOCC2)n1` [ZSTK474, 2-(difluoromethyl)-1-[4,6-di(4-morpholinyl)-1,3,5-triazin-2-yl]-1H-benzimidazole], for which the remaining activity at 1 µM at panel of 442 kinases [1] was found to be 92%; on panel of 442 kinases [2] it was 100%; at panel of 442 kinases [3] it was 100%; at panel of 442 kinases [4], 82%; at panel of 442 kinases [5] (setting [9]), 81%; at panel of 442 kinases [5] (setting [10]), 91%. Moreover, the remaining activity at 1 µM on panel of 442 kinases [6] was 100%; at panel of 442 kinases [7] it was 94%.
